# Measurements published in ChEMBL document CHEMBL2074119, “Multispecific substrate recognition of kidney-specific organic anion transporters OAT-K1 and OAT-K2” (J Pharmacol Exp Ther, 2001).
# T1: OAT-K2 (Solute carrier organic anion transporter family member 1A3) (Rattus norvegicus, UniProt P70502)
# T1 sequence (P70502 whole entry): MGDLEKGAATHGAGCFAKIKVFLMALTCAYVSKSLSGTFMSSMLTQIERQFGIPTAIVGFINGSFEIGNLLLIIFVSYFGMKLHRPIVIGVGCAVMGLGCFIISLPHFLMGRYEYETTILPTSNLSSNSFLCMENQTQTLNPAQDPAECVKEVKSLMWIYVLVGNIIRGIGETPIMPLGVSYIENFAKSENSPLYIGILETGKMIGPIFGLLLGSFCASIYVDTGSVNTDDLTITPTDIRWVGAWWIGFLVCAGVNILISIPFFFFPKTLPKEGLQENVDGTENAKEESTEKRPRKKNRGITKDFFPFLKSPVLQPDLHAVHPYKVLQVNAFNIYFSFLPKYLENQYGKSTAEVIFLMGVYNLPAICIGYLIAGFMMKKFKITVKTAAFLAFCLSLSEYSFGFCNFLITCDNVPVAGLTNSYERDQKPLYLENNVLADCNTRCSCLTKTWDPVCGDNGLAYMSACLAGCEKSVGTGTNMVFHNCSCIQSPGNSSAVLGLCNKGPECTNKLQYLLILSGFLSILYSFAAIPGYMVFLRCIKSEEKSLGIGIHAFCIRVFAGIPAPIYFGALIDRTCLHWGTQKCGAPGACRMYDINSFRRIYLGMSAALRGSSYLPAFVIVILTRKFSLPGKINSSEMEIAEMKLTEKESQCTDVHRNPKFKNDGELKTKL
# T2: Solute carrier organic anion transporter family member 1A3 (Rattus norvegicus, UniProt P70502)
# T2 sequence (P70502 whole entry): T1 sequence (P70502 whole entry)
# T3: OAT-K1 (Solute carrier organic anion transporter family member 1A3) (Rattus norvegicus, UniProt P70502)
# T3 sequence (P70502 whole entry): T1 sequence (P70502 whole entry)
# T4: Solute carrier organic anion transporter family member 1A4 (Rattus norvegicus, UniProt O35913)
# T4 sequence (O35913 whole entry): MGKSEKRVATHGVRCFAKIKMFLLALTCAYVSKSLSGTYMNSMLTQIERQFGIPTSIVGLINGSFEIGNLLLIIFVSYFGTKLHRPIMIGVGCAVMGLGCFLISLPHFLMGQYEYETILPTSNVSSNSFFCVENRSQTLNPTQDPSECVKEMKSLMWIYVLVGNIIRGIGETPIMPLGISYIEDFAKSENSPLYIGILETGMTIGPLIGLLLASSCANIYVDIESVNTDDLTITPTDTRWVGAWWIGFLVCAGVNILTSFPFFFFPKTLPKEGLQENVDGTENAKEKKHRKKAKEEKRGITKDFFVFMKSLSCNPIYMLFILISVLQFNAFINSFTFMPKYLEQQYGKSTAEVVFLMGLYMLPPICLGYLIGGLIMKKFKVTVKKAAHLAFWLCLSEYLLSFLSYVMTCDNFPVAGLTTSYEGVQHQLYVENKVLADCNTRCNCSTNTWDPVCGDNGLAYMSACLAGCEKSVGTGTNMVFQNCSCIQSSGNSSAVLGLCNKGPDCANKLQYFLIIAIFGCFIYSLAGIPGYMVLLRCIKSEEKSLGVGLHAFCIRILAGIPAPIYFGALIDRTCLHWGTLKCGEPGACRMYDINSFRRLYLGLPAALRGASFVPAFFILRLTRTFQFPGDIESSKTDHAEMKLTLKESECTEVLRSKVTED
# B1: Solute carrier organic anion transporter family member 1A3 (Rattus norvegicus) (protein)
# chain: T1 sequence (P70502 whole entry)
# Tests used:
# [1] = biological target: T1, OAT-K2 (Solute carrier organic anion transporter family member 1A3); assay: (§1) TP_TRANSPORTER: uptake in OAT-K2-expressing MDCK cells; assay type: functional, cell-based; settings: dog
# [2] = biological target: T2, Solute carrier organic anion transporter family member 1A3; assay: TP_TRANSPORTER: inhibition of Taurocholate uptake (Taurocholate: 0.25 uM, OTA: 100 uM) in OAT-K1-expressing MDCK cells; assay type: functional, cell-based; settings: dog
# [3] = biological target: T3, OAT-K1 (Solute carrier organic anion transporter family member 1A3); assay: (§2) TP_TRANSPORTER: uptake in OAT-K1-expressing MDCK cells; assay type: functional, cell-based; settings: dog
# [4] = biological target: T2, Solute carrier organic anion transporter family member 1A3; assay: TP_TRANSPORTER: inhibition of Taurocholate uptake (Taurocholate: 0.25 uM, DHEA-3-acetate: 100 uM) in OAT-K1-expressing MDCK cells; assay type: functional, cell-based; settings: dog
# [5] = biological target: T2, Solute carrier organic anion transporter family member 1A3; assay: TP_TRANSPORTER: inhibition of MTX uptake (MTX: 0.1 uM, T4: 50 uM) in OAT-K2-expressing MDCK cells; assay type: functional, cell-based; settings: dog
# [6] = biological target: T2, Solute carrier organic anion transporter family member 1A3; assay: TP_TRANSPORTER: inhibition of MTX uptake (MTX: 0.1 uM, T3: 50 uM) in OAT-K2-expressing MDCK cells; assay type: functional, cell-based; settings: dog
# [7] = biological target: T4, Solute carrier organic anion transporter family member 1A4; assay: TP_TRANSPORTER: inhibition of Digoxin uptake in Xenopus laevis oocytes
# [8] = biological target: T2, Solute carrier organic anion transporter family member 1A3; assay: TP_TRANSPORTER: inhibition of T3 uptake (T3: 0.43nM, MTX: 2500 uM) in OAT-K1-expressing MDCK cells; assay type: functional, cell-based; settings: dog
# [9] = biological target: T2, Solute carrier organic anion transporter family member 1A3; assay: TP_TRANSPORTER: inhibition of T3 uptake (T3: 0.43nM, MTX: 2500 uM) in OAT-K2-expressing MDCK cells; assay type: functional, cell-based; settings: dog
# [10] = biological target: T2, Solute carrier organic anion transporter family member 1A3; assay: TP_TRANSPORTER: inhibition of Taurocholate uptake (Taurocholate: 0.25 uM, DHEAS: 100 uM) in OAT-K1-expressing MDCK cells; assay type: functional, cell-based; settings: dog
# [11] = biological target: T2, Solute carrier organic anion transporter family member 1A3; assay: TP_TRANSPORTER: inhibition of Taurocholate uptake (Taurocholate: 0.25 uM, DHEA: 100 uM) in OAT-K1-expressing MDCK cells; assay type: functional, cell-based; settings: dog
# [12] = substrate: [H][C@@]12CC=C3C[C@@H](OS(=O)(=O)O)CC[C@]3(C)[C@@]1([H])CC[C@]1(C)C(=O)CC[C@@]21[H]; assay: as §1; assay type: functional, cell-based
# [13] = substrate: C[C@]12CC[C@@H]3c4ccc(O)cc4CC[C@H]3[C@@H]1CC[C@@H]2O[C@@H]1O[C@H](C(=O)O)[C@@H](O)[C@H](O)[C@H]1O; assay: as §1; assay type: functional, cell-based
# [14] = substrate: CN(Cc1cnc2nc(N)nc(N)c2n1)c1ccc(C(=O)N[C@@H](CCC(=O)O)C(=O)O)cc1; assay: as §1; assay type: functional, cell-based
# [15] = substrate: N[C@@H](Cc1cc(I)c(Oc2cc(I)c(O)c(I)c2)c(I)c1)C(=O)O; assay: as §1; assay type: functional, cell-based
# [16] = substrate: N[C@@H](Cc1cc(I)c(Oc2ccc(O)c(I)c2)c(I)c1)C(=O)O; assay: as §1; assay type: functional, cell-based
# [17] = substrate: [H][C@@]12CC=C3C[C@@H](OS(=O)(=O)O)CC[C@]3(C)[C@@]1([H])CC[C@]1(C)C(=O)CC[C@@]21[H]; assay: as §2; assay type: functional, cell-based
# [18] = substrate: C[C@]12CC[C@@H]3c4ccc(O)cc4CC[C@H]3[C@@H]1CC[C@@H]2O[C@@H]1O[C@H](C(=O)O)[C@@H](O)[C@H](O)[C@H]1O; assay: as §2; assay type: functional, cell-based
# [19] = substrate: N[C@@H](Cc1cc(I)c(Oc2cc(I)c(O)c(I)c2)c(I)c1)C(=O)O; assay: as §2; assay type: functional, cell-based
# [20] = substrate: N[C@@H](Cc1cc(I)c(Oc2ccc(O)c(I)c2)c(I)c1)C(=O)O; assay: as §2; assay type: functional, cell-based
molecule,measurement,setting,value
C[C@@H]1Cc2c(Cl)cc(C(=O)N[C@@H](Cc3ccccc3)C(=O)O)c(O)c2C(=O)O1 [3R14S-OCHRATOXIN A],Km,[1],16.6 µM
same,Activity,[2],inhibitor [(at a rough estimate) 55 % of control]
same,Km,[3],5.6 µM
CC(=O)O[C@H]1CC[C@@]2(C)C(=CC[C@@H]3[C@@H]2CC[C@]2(C)C(=O)CC[C@@H]32)C1 [DEHYDROEPIANDROSTERONE ACETATE],Activity,[4],inhibitor [(at a rough estimate) 30 % of control]
N[C@@H](Cc1cc(I)c(Oc2cc(I)c(O)c(I)c2)c(I)c1)C(=O)O [LEVOTHYROXINE],Activity,[5],inhibitor [(at a rough estimate) 60 % of control]
N[C@@H](Cc1cc(I)c(Oc2ccc(O)c(I)c2)c(I)c1)C(=O)O [LIOTHYRONINE],Activity,[6],inhibitor [(at a rough estimate) 60 % of control]
same,IC50,[7],50.4 µM
CN(Cc1cnc2nc(N)nc(N)c2n1)c1ccc(C(=O)N[C@@H](CCC(=O)O)C(=O)O)cc1 [METHOTREXATE],Activity,[8],inhibitor [(at a rough estimate) 75 % of control]
same,Activity,[9],inhibitor [(at a rough estimate) 75 % of control]
C[C@]12CC[C@H](OS(=O)(=O)O)CC1=CC[C@@H]1[C@@H]2CC[C@]2(C)C(=O)CC[C@@H]12 [PRASTERONE SULFURIC ACID],Activity,[10],inhibitor [(at a rough estimate) 30 % of control]
C[C@]12CC[C@H](O)CC1=CC[C@@H]1[C@@H]2CC[C@]2(C)C(=O)CC[C@@H]12 [PRASTERONE],Activity,[11],inhibitor [(at a rough estimate) 30 % of control]
Cc1cn([C@H]2C[C@H](N=[N+]=[N-])[C@@H](CO)O2)c(=O)[nH]c1=O [ZIDOVUDINE],Km,[1],76.3 µM
same,Km,[3],64.3 µM
B1,Km,[12],7.6 µM
same,Km,[13],44.9 µM
same,Km,[14],1.8 µM
same,Km,[15],12 µM
same,Km,[16],24.8 µM
same,Km,[17],8.5 µM
same,Km,[18],35.3 µM
same,Km,[19],20.2 µM
same,Km,[20],43.8 µM
